Experimental data: patent publication US12048751B2, “Compositions and methods for assessing gut function” (MediBeacon Inc., priority 2013, dated 2024)

What was measured:
[1] = Plasma concentration vs. time after single intravenous and oral dose (IV and oral clearance); format: in vivo, Sprague-Dawley rats; details: rats having "normal" gut function; single dose given intravenously and orally (FIG. 3)
Description: (§1) Example 1 may be categorized as fluorescent challenge molecule is not substantially absorbed by a healthy gut.

[2] = Light absorption and emission maxima of the fluorescent challenge molecule; format: physicochemical
Description: as §1
Example 2 may be categorized as fluorescent challenge molecule is not substantially absorbed by a healthy gut as the molecular weight is relatively high (344 g/mol).
(§2) Example 3 may be categorized as fluorescent challenge molecule that is substantially absorbed by a healthy gut as the molecular weight is relatively low (198 g/mol).

[3] = Clearance from the body followed by fluorescence signal, with and without ligated kidneys; format: in vivo; details: for clearance pathway from the body: fluorescence signal over time
Description: as §2

| SMILES | oral bioavailability [1] | light absorption maximum [2] [nm] | light emission maximum [2] [nm] | clearance pathway from the body [3] | clearance pathway from the body ([3]; listed as Example Compound 3) | fluorescence signal when the kidneys are ligated ([3]; kidneys ligated, no excretion pathway) |
| --- | --- | --- | --- | --- | --- | --- |
| Nc1nc(C(=O)N[C@H](CO)C(=O)O)c(N)nc1C(=O)N[C@H](CO)C(=O)O [Example 1, 3,6-diamino-2,5-bis{N-[(1R)-1-carboxy-2-hydroxyethyl]carbamoyl}pyrazine] | very little | 445 | 560 | – | – | – |
| NC(=O)c1nc(NCC(O)CO)c(C(N)=O)nc1NCC(O)CO (stereo not shown) [Example 2, 3,6-N,N′-bis(2,3-dihydroxypropyl)-2,5-pyrazinedicarboxamide] | – | 486 | 600 | – | – | – |
| Nc1nc(C(=O)O)c(N)nc1C(=O)O [Example 3, 3,6-diaminopyrazine-2,5-dicarboxylic Acid] | – | 396 | 536 | clears from the body by the renal system | clears from the body via the renal system | stays elevated |
